Measurements: patent publication US20240180877A1, “ANTI-ANXIETY COMPOSITION” (SUNTORY HOLDINGS LIMITED, priority 2021, published 2024)

Key:
[1] = molecular target: T1, Recombinant human α3/β4 nicotinic acetylcholine receptors (nAChR (α3β4)) (Homo sapiens, UniProt P30926+P32297); assay: Inhibition of [125I]epibatidine binding to nAChR (α3β4) cell membranes
T1 construct: host or cells: CHO-K1
Method: (§1) In order to evaluate molecular targets for reducing glutamate signaling by L-ergothioneine, nicotinic acetylcholine receptors associated with glutamate signaling were subjected to in vitro assay. The in vitro assay was commissioned to Eurofins Panlabs. The test was performed by the following method.
Recombinant human α3/β4 nicotinic acetylcholine receptors (nAChR (α3β4)) expressed in Chinese hamster ovary-derived CHO-K1 cells were used. Cell membranes (0.6 μg) of the cells expressing nAChR (α3β4) were incubated in Tris-HCl buffer (pH 7.4) with 0.05 nM [125I]epibatidine and L-ergothioneine (L-ergothioneine concentration: 30 μM, 100 μM, 300 μM, 1000 μM, or 3000 μM) at 25° C. for 60 minutes. Non-specific binding was estimated in the presence of 10 μM epibatidine. The cell membranes were filtered through a filter and washed, and the activity of L-ergothioneine to inhibit binding of substrates was evaluated using radioactivity of [125I]epibatidine as an index.

[2] = molecular target: Recombinant human α7 nicotinic acetylcholine receptors (nAChR (α7)) (Homo sapiens, UniProt P36544); assay type: binding; settings: FIG. 3; 100 μM or 1000 μM; 0.4 nM [125I]-α-bungarotoxin; SH-SY5Y cell membranes
Chain of Recombinant human α7 nicotinic acetylcholine receptors (nAChR (α7)) (P36544 23-502): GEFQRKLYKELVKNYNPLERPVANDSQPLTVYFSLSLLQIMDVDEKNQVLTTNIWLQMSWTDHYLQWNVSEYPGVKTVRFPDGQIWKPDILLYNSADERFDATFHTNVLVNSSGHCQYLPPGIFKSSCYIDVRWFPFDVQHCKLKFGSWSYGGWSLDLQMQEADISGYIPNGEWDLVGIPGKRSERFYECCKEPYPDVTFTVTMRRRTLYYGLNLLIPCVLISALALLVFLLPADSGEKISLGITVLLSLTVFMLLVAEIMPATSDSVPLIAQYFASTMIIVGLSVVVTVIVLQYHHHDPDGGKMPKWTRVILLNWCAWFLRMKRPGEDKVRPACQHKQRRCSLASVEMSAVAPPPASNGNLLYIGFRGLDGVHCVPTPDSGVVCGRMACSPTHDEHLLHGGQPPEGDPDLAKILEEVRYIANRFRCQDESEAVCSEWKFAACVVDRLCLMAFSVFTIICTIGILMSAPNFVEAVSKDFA

[3] = molecular target: T2, Recombinant human α4/β2 nicotinic acetylcholine receptors (nAChR (α4β2)) (Homo sapiens, UniProt P17787+P43681); assay: Inhibition of [3H]cytisine binding to nAChR (α4β2) cell membranes; settings: FIG. 3; 100 μM or 1000 μM; 0.6 nM [3H]cytisine; SH-SY5Y cell membranes
T2 construct: host or cells: SH-SY5Y
T2 sequence (P43681 29-627 limits assumed): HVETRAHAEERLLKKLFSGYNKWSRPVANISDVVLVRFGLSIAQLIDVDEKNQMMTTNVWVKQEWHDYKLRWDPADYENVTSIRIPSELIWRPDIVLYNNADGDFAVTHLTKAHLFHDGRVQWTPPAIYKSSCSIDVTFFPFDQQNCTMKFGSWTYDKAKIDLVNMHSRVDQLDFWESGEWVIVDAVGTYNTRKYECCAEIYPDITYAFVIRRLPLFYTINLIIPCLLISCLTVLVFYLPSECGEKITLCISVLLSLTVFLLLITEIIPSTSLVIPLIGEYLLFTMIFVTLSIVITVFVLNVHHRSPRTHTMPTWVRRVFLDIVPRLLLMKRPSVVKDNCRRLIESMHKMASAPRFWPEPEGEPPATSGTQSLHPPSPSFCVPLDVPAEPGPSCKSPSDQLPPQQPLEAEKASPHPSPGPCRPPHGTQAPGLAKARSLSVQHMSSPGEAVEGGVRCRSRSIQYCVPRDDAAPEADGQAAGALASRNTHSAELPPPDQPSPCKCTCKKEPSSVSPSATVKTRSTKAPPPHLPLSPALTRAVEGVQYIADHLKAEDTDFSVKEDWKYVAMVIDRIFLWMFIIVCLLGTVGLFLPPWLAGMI
T2 sequence (P17787 26-502): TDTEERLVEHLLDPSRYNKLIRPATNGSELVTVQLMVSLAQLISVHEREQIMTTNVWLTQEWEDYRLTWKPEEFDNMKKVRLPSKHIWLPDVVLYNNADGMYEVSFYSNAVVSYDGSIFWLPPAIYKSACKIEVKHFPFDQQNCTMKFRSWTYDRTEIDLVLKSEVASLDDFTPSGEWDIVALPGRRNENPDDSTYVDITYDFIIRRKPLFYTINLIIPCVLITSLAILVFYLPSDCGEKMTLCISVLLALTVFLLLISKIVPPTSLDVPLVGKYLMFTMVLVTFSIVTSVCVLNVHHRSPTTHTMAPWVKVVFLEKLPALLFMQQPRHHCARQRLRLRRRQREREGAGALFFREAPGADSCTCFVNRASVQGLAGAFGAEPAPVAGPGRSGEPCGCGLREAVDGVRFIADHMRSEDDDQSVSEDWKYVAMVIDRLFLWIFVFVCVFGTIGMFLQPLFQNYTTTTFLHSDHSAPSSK
Method: as §1
Recombinant human α4/β2 nicotinic acetylcholine receptors (nAChR (α4β2)) expressed in human neuroblastoma-derived SH-SY5Y cells were used. Cell membranes (30 μg) of the cells expressing nAChR (α4β2) were incubated in Tris-HCl buffer (pH 7.4) with 0.6 nM [3H]cytisine and L-ergothioneine (L-ergothioneine concentration: 100 μM or 1000 μM) at 4° C. for 120 minutes. Non-specific binding was estimated in the presence of 10 μM nicotine bitartrate. The cell membranes were filtered through a filter and washed, and the activity of L-ergothioneine to inhibit binding of substrates was evaluated using radioactivity of [3H]cytisine as an index.

T1 sequence (P30926 22-498): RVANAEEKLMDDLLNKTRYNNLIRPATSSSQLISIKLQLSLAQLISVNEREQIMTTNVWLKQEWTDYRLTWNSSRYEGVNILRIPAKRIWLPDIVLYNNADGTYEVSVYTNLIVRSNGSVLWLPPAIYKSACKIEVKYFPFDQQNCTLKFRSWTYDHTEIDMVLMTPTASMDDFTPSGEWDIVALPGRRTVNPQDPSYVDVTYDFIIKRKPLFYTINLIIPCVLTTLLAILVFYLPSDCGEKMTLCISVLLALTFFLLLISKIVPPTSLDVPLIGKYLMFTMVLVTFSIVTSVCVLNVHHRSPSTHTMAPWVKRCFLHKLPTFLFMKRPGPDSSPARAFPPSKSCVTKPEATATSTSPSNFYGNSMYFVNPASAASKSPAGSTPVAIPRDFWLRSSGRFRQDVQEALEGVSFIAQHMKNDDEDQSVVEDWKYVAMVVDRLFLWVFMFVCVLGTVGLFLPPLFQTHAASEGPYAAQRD
T1 sequence (P32297 32-505): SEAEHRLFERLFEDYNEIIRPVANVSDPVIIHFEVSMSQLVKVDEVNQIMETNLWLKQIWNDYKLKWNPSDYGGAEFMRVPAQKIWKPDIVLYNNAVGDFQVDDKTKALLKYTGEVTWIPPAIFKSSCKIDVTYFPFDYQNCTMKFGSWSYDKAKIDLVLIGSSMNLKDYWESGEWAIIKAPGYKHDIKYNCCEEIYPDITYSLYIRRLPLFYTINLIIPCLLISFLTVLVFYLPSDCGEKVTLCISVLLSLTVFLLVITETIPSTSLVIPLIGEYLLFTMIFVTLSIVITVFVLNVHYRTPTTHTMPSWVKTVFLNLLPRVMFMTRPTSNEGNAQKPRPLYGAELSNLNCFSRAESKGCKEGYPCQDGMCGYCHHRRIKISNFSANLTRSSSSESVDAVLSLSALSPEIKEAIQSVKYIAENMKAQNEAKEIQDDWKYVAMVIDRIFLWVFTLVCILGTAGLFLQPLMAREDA

C[N+](C)(C)[C@@H](Cc1c[nH]c(=S)[nH]1)C(=O)[O-] [L-ergothioneine]
activity to inhibit binding of substrates to α3β4 receptors ([1]; FIG. 3, [125I]epibatidine): strong activity
IC50 ([1]; five concentrations 30-3000 μM, 0.05 nM [125I]epibatidine, CHO-K1 cell membranes, 25° C., 60 minutes, read-out: 50% inhibitory concentration): 1110 µM
activity to inhibit binding of substrates to α7 receptors [2]: showed the activity
activity to inhibit binding of substrates to α4β2 receptors [3]: showed the activity
